Test results: patent US11000033B2, “Ketone or oxime compound, and herbicide” (NISSAN CHEMICAL CORPORATION, priority 2014, dated 2021)

Experiments:
Type in all cases: in vivo
[1] = test system: Amaranthus retroflexus; test: Test Example 4: herbicidal effect by soil treatment (symbol N); settings: application herbicide amount 320 g/ha
How it was run: (§1)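 Seeds were sown in sterilized diluvial soil, covered with about 1.5 cm of soil, and the soil surface was sprayed with a water-diluted emulsion of the compound at a predetermined rate. Plants grew in a greenhouse at 25° C. to 30° C.; effects were scored visually 3 weeks after application.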

[2] = test system: Veronica persica; test: Test Example 5: herbicidal effect by foliage application, plastic box (symbol R); settings: 320 g/ha, 3 weeks after application
How it was run: (§2)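 Herbicide, formulated as an emulsion and diluted in water, is sprayed onto the aerial parts of 14-day seedlings. These were grown at 25° C. to 30° C. in sterilized diluvial soil; effects are graded after 3 weeks.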

[3] = test system: wheat; test: Test Example 4: effect on crop by soil treatment (symbol e); settings: application herbicide amount 320 g/ha
How it was run: (§3)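 Crop seed is sown in spots together with several weed species in a box of sterilized diluvial soil. It is covered by about 1.5 cm of soil and kept in a greenhouse held between 25° C. and 30° C.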

[4] = test system: beet; test: Test Example 5: effect on crop by foliage application, plastic box (symbol f); settings: 320 g/ha, 3 weeks after application
How it was run: (§4)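 A greenhouse held between 25° C. and 30° C. was used to grow plants sown spot-wise, beneath ~1.5 cm of soil, in boxes of sterilized diluvial soil.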

[5] = test system: Scirpus juncoides; test: Test Example 1: herbicidal activity, application before weed generation in submerged conditions (symbol B); settings: application herbicide amount 320 g/ha
How it was run: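 Application before weed emergence: an aqueous dilution of the emulsion formulation was poured onto the surface of 4 cm-deep floodwater on the day of sowing. Effect was judged after 3 weeks (greenhouse, 25–30 °C).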

[6] = test system: Setaria viridis; test: Test Example 5: herbicidal effect by foliage application, plastic box (symbol G); settings: 320 g/ha, 3 weeks after application
How it was run: as §2

[7] = test system: Galium spurium; test: Test Example 4: herbicidal effect by soil treatment (symbol Q); settings: application herbicide amount 320 g/ha
How it was run: as §1

[8] = test system: soybean; test: Test Example 5: effect on crop by foliage application, plastic box (symbol d); settings: 320 g/ha, 3 weeks after application
How it was run: as §4

[9] = test system: Scirpus juncoides; test: Test Example 2: herbicidal activity, application during weed generation in submerged conditions (symbol B); settings: Table 23; application herbicide amount 320 g/ha; grade 0-5 by criteria of Test Example 1
How it was run: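 Each pot contained alluvial soil under 4 cm of water with seeds of all three weeds sown together. Following growth at 25° C. to 30° C. to the one- to two-leaf stage, the floodwater received diluted emulsion at a predetermined amount; visual assessment followed at 3 weeks.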

[10] = test system: Avena fatua; test: Test Example 5: herbicidal effect by foliage application, plastic box (symbol I); settings: 320 g/ha, 3 weeks after application
How it was run: as §2

[11] = test system: Apera spica-venti; test: Test Example 5: herbicidal effect by foliage application, plastic box (symbol L); settings: 320 g/ha, 3 weeks after application
How it was run: as §2

[12] = test system: Galium spurium; test: Test Example 5: herbicidal effect by foliage application, plastic box (symbol Q); settings: 320 g/ha, 3 weeks after application
How it was run: as §2

[13] = test system: Echinochloa crus-galli var. crus-galli; test: Test Example 4: herbicidal effect by soil treatment (symbol H); settings: application herbicide amount 320 g/ha
How it was run: as §1

[14] = test system: Avena fatua; test: Test Example 4: herbicidal effect by soil treatment (symbol I); settings: application herbicide amount 320 g/ha
How it was run: as §1

[15] = test system: beet; test: Test Example 4: effect on crop by soil treatment (symbol f); settings: application herbicide amount 320 g/ha
How it was run: as §3

[16] = test system: rapeseed; test: Test Example 4: effect on crop by soil treatment (symbol g); settings: application herbicide amount 320 g/ha
How it was run: as §3

[17] = test system: Apera spica-venti; test: Test Example 4: herbicidal effect by soil treatment (symbol L); settings: application herbicide amount 320 g/ha
How it was run: as §1

[18] = test system: Chenopodium album; test: Test Example 5: herbicidal effect by foliage application, plastic box (symbol O); settings: 320 g/ha, 3 weeks after application
How it was run: as §2

Structure (SMILES)	N: Amaranthus retroflexus, herbicidal effect grade [1]	R: Veronica persica, herbicidal effect (criteria of Test Example 1) [2]	e: wheat, effect on crop grade [3]	f: beet, effect on crop (criteria of Test Example 1) [4]	Herbicidal effect grade, B: Scirpus juncoides [5]	G: Setaria viridis, herbicidal effect (criteria of Test Example 1) [6]	Q: Galium spurium, herbicidal effect grade [7]	d: soybean, effect on crop (criteria of Test Example 1) [8]	Herbicidal effect grade, B: Scirpus juncoides [9]	I: Avena fatua, herbicidal effect (criteria of Test Example 1) [10]	L: Apera spica-venti, herbicidal effect (criteria of Test Example 1) [11]	Q: Galium spurium, herbicidal effect (criteria of Test Example 1) [12]	H: Echinochloa crus-galli var. crus-galli, herbicidal effect grade [13]	I: Avena fatua, herbicidal effect grade [14]	f: beet, effect on crop grade [15]	g: rapeseed, effect on crop grade [16]	L: Apera spica-venti, herbicidal effect grade [17]	N (Amaranthus retroflexus) herbicidal effect grade [1]	R: Veronica persica, herbicidal effect grade [2]	e (wheat) effect on crop grade [3]	further results
CON=C(C)CC1CC(OC(=O)N2CCOCC2)=C(c2c(C)cc(-c3ccc(Cl)cc3)cc2C)C1=O (mixture of isomers) [6-062]	0 (Herbicidal ratio of 5% or lower (almost no effect))	5 (Herbicidal ratio of 90% or more (almost completely withered))	0 (Herbicidal ratio of 5% or lower (almost no effect))	0 (Herbicidal ratio of 5% or lower (almost no effect))	4 (Herbicidal ratio of 70% or higher and lower than 90%)	5 (Herbicidal ratio of 90% or more (almost completely withered))	0 (Herbicidal ratio of 5% or lower (almost no effect))	0 (Herbicidal ratio of 5% or lower (almost no effect))	3 (Herbicidal ratio of 40% or higher and lower than 70%)	5 (Herbicidal ratio of 90% or more (almost completely withered))	5 (Herbicidal ratio of 90% or more (almost completely withered))	5 (Herbicidal ratio of 90% or more (almost completely withered))	5 (Herbicidal ratio of 90% or more (almost completely withered))	0 (Herbicidal ratio of 5% or lower (almost no effect))	0 (Herbicidal ratio of 5% or lower (almost no effect))	0 (Herbicidal ratio of 5% or lower (almost no effect))	5 (Herbicidal ratio of 90% or more (almost completely withered))				
CON=C(C)CC1CC(OC(=O)N(C)C)=C(c2c(C)cc(-c3ccc(Cl)cc3)cc2C)C1=O (mixture of isomers) [6-063]	0 (Herbicidal ratio of 5% or lower (almost no effect))	0 (Herbicidal ratio of 5% or lower (almost no effect))	0 (Herbicidal ratio of 5% or lower (almost no effect))	0 (Herbicidal ratio of 5% or lower (almost no effect))	2 (Herbicidal ratio of 20% or higher and lower than 40%)	5 (Herbicidal ratio of 90% or more (almost completely withered))	0 (Herbicidal ratio of 5% or lower (almost no effect))	0 (Herbicidal ratio of 5% or lower (almost no effect))	3 (Herbicidal ratio of 40% or higher and lower than 70%)	5 (Herbicidal ratio of 90% or more (almost completely withered))	5 (Herbicidal ratio of 90% or more (almost completely withered))	3 (Herbicidal ratio of 40% or higher and lower than 70%)	0 (Herbicidal ratio of 5% or lower (almost no effect))	0 (Herbicidal ratio of 5% or lower (almost no effect))	0 (Herbicidal ratio of 5% or lower (almost no effect))	0 (Herbicidal ratio of 5% or lower (almost no effect))	5 (Herbicidal ratio of 90% or more (almost completely withered))				
CON=C(C)CC1CC(OC(=O)C2CC2)=C(c2c(C)cc(C)cc2C)C1=O (stereo not drawn) [1-015]					5 (Herbicidal ratio of 90% or more (almost completely withered))				4 (Herbicidal ratio of 70% or higher and lower than 90%)									5 (Herbicidal ratio of 90% or more (almost completely withered))	4 (Herbicidal ratio of 70% or higher and lower than 90%)	3 (Herbicidal ratio of 40% or higher and lower than 70%)	f: beet, effect on crop grade [4]: 3 (Herbicidal ratio of 40% or higher and lower than 70%); G: Setaria viridis, herbicidal effect grade [6]: 5 (Herbicidal ratio of 90% or more (almost completely withered)); Q (Galium spurium) herbicidal effect grade [7]: 3 (Herbicidal ratio of 40% or higher and lower than 70%); d: soybean, effect on crop grade [8]: 5 (Herbicidal ratio of 90% or more (almost completely withered)); I: Avena fatua, herbicidal effect grade [10]: 5 (Herbicidal ratio of 90% or more (almost completely withered)); L: Apera spica-venti, herbicidal effect grade [11]: 5 (Herbicidal ratio of 90% or more (almost completely withered)); Q: Galium spurium, herbicidal effect grade [12]: 4 (Herbicidal ratio of 70% or higher and lower than 90%); O: Chenopodium album, herbicidal effect grade [18]: 3 (Herbicidal ratio of 40% or higher and lower than 70%); H (Echinochloa crus-galli var. crus-galli) herbicidal effect grade [13]: 5 (Herbicidal ratio of 90% or more (almost completely withered)); I (Avena fatua) herbicidal effect grade [14]: 5 (Herbicidal ratio of 90% or more (almost completely withered)); g (rapeseed) effect on crop grade [16]: 4 (Herbicidal ratio of 70% or higher and lower than 90%); L (Apera spica-venti) herbicidal effect grade [17]: 5 (Herbicidal ratio of 90% or more (almost completely withered))
CC(CC1CC(O)=C(c2c(C)cc(C)cc2C)C1=O)=NOCc1ccccc1 (stereo not drawn) [1-020]					5 (Herbicidal ratio of 90% or more (almost completely withered))				3 (Herbicidal ratio of 40% or higher and lower than 70%)									0 (Herbicidal ratio of 5% or lower (almost no effect))	4 (Herbicidal ratio of 70% or higher and lower than 90%)	2 (Herbicidal ratio of 20% or higher and lower than 40%)	f: beet, effect on crop grade [4]: 3 (Herbicidal ratio of 40% or higher and lower than 70%); G: Setaria viridis, herbicidal effect grade [6]: 5 (Herbicidal ratio of 90% or more (almost completely withered)); Q (Galium spurium) herbicidal effect grade [7]: 0 (Herbicidal ratio of 5% or lower (almost no effect)); d: soybean, effect on crop grade [8]: 0 (Herbicidal ratio of 5% or lower (almost no effect)); I: Avena fatua, herbicidal effect grade [10]: 4 (Herbicidal ratio of 70% or higher and lower than 90%); L: Apera spica-venti, herbicidal effect grade [11]: 5 (Herbicidal ratio of 90% or more (almost completely withered)); Q: Galium spurium, herbicidal effect grade [12]: 4 (Herbicidal ratio of 70% or higher and lower than 90%); H (Echinochloa crus-galli var. crus-galli) herbicidal effect grade [13]: 5 (Herbicidal ratio of 90% or more (almost completely withered)); I (Avena fatua) herbicidal effect grade [14]: 4 (Herbicidal ratio of 70% or higher and lower than 90%); f (beet) effect on crop grade [15]: 0 (Herbicidal ratio of 5% or lower (almost no effect)); g (rapeseed) effect on crop grade [16]: 4 (Herbicidal ratio of 70% or higher and lower than 90%); L (Apera spica-venti) herbicidal effect grade [17]: 5 (Herbicidal ratio of 90% or more (almost completely withered))
CON=C(C)CC1CC(OC(=O)SC(C)(C)C)=C(c2c(C)cc(-c3ccc(Cl)cc3)cc2C)C1=O (stereo not drawn) [6-082]		4 (Herbicidal ratio of 70% or higher and lower than 90%)	0 (Herbicidal ratio of 5% or lower (almost no effect))	0 (Herbicidal ratio of 5% or lower (almost no effect))	4 (Herbicidal ratio of 70% or higher and lower than 90%)	5 (Herbicidal ratio of 90% or more (almost completely withered))	0 (Herbicidal ratio of 5% or lower (almost no effect))	0 (Herbicidal ratio of 5% or lower (almost no effect))	3 (Herbicidal ratio of 40% or higher and lower than 70%)	5 (Herbicidal ratio of 90% or more (almost completely withered))	5 (Herbicidal ratio of 90% or more (almost completely withered))	4 (Herbicidal ratio of 70% or higher and lower than 90%)	5 (Herbicidal ratio of 90% or more (almost completely withered))	3 (Herbicidal ratio of 40% or higher and lower than 70%)	0 (Herbicidal ratio of 5% or lower (almost no effect))	0 (Herbicidal ratio of 5% or lower (almost no effect))	5 (Herbicidal ratio of 90% or more (almost completely withered))				
